biological target: T1, endogenous renin from human plasma (Homo sapiens, UniProt P00797); assay: In vitro test: inhibition of plasma renin activity (angiotensin I formation, radioimmunoassay); assay type: biochemical; conditions: pooled human plasma, 37° C., pH 5.6
T1 construct: rate of formation of angiotensin I from endogenous angiotensinogen and renin; from tissue; host or cells: pooled human plasma (EDTA)
T1 sequence (P00797 67-406): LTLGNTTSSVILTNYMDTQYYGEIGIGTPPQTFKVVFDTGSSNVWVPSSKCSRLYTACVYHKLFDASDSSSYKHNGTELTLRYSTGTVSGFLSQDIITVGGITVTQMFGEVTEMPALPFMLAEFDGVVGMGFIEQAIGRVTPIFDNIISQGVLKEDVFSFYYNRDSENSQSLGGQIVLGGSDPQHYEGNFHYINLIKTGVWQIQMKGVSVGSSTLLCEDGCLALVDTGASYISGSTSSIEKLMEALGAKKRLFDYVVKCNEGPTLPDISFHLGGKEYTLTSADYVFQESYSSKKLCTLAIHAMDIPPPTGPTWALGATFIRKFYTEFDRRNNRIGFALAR
Description: The plasma renin activity (PRA) is determined by incubation at 37° C. as the rate of formation of angiotensin I from endogenous angiotensinogen and renin. […] The angiotensin I formed per unit of time is determined by radioimmunoassay (Sorin Biomedica, Italy).
The percentage inhibition of the plasma renin activity is calculated by comparison […].

Row | Structure (SMILES) | Inhibition at 0.05 mg/ml [%]
1 | O=C(N[C@H](Cc1cnc[nH]1)C(=O)N[C@H](Cc1ccccc1)C(=O)OCc1ccccc1)C(Cc1ccccc1)C(O)CN1C(=O)c2ccccc2C1=O (stereo partly drawn) [Example 70, 4-(N-Phthalyl)amino-2-R,S-benzyl-3R,S-hydroxybutyryl-D-histidyl-D-phenylalanine benzyl ester] | 100
2 | O=C(O)[C@@H](Cc1ccccc1)NC(=O)[C@@H](Cc1c[nH]cn1)NC(=O)[C@H](Cc1ccccc1)[C@@H](O)CN1C(=O)c2ccccc2C1=O [Example 71, 4-(N-Phthalyl)amino-2-R,S-benzyl-3R,S-hydroxybutyryl-D-histidyl-D-phenylalanine] | 92
3 | O=C(NC1CCCC1)[C@@H](Cc1ccccc1)NC(=O)[C@@H](Cc1c[nH]cn1)NC(=O)[C@H](Cc1ccccc1)[C@@H](O)CN1C(=O)c2ccccc2C1=O [Example 72, 4-(N-Phthalyl)amino-2-R,S-benzyl-3R,S-hydroxybutyryl-D-histidyl-D-phenylalanine(cyclopentyl)amide] | 100
4 | CC(C)(C)OC(=O)N(Cc1ccccc1)CC(O)C(Cc1ccccc1)C(=O)N[C@H](Cc1c[nH]cn1)C(=O)O (stereo partly drawn) [Example 74, 4-(N-tert.-Butoxycarbonyl-N-benzyl)amino-2-R,S-benzyl-3-R,S-hydroxybutyryl-D-histidine] | 93
5 | CC(C)(C)OC(=O)N(Cc1ccccc1)CC(O)C(Cc1ccccc1)C(=O)N[C@H](Cc1cnc[nH]1)C(=O)N[C@H](Cc1ccccc1)C(=O)O (stereo partly drawn) [Example 76, 4-(N-tert.-Butoxycarbonyl-N-benzyl)amino-2-R,S-benzyl-3-R,S-hydroxybutyryl-D-histidyl-D-phenylalanine] | 78
6 | CC(C)(C)OC(=O)N(Cc1ccccc1)C[C@H](O)[C@@H](Cc1ccccc1)C(=O)N[C@H](Cc1c[nH]cn1)C(=O)N[C@H](Cc1ccccc1)C(=O)N1CCOCC1 [Example 77, 4-(N-tert.-Butoxycarbonyl-N-benzyl)amino-2-R,S-benzyl-3-R,S-hydroxybutyryl-D-histidyl-D-phenylalanine-(N-morpholino)amide] | 100
7 | CC(C)CNC(=O)[C@@H](Cc1ccccc1)NC(=O)[C@@H](Cc1c[nH]cn1)NC(=O)[C@H](Cc1ccccc1)[C@@H](O)CNC(=O)OC(C)(C)C [Example 78, (N-tert.-Butoxycarbonyl)amino-2-R,S-benzyl-3-R,S-hydroxybutyryl-D-histidyl-D-phenylalanine-(2-methylpropyl)amide] | 100
8 | CC(C)CNC(=O)[C@@H](Cc1ccccc1)NC(=O)[C@@H](Cc1cnc[nH]1)NC(=O)C(Cc1ccccc1)C(O)CNC(=O)c1ccccc1C(=O)O (stereo partly drawn) [Example 90, 4-[N-(2-Carboxy)benzoyl]amino-2-R,S-benzyl-3-R,S-hydroxybutyryl-D-histidyl-D-phenylalanine-(2-methyl) propylamide] | 63
9 | COC(=O)[C@@H](Cc1ccccc1)NC(=O)[C@@H](Cc1cnc[nH]1)NC(=O)C(Cc1ccccc1)C(O)CN(Cc1ccccc1)C(=O)Cc1cccnc1 (stereo partly drawn) [Example 103, 4-[N-Benzyl-N-(3-pyridyl)acetyl]amino-2-R,S-benzyl-3-R,S-hydroxybutyryl-D-histidyl-D-phenylalanine methyl ester] | 88

From patent US5095006A, “Renin inhibitors having all retro-inverted peptide bonds” (Bayer Aktiengesellschaft, priority 1989, dated 1992)
